Experimental data: US20130302470A1, “L-amino-acid-containing feed additive in the form of fermentation-broth-based granules, and processes for its preparation” (EVONIK INDUSTRIES AG, priority 2012, published 2013)

Columns and labels:
[1] = Hydrothermal stability, Experiment 9.2: pelleted aquafeed (lysine recovery); format: physicochemical; conditions: pelleting process
Text: (§1) So as to be able to assess what is known as the hydrothermal stability of the additives, and to compare them with each other, the production processes for producing pelleted and extruded aquafeed was reproduced on a small scale. In each case two feed blends which differ only in respect of the L-lysine additive were employed, mixture A being supplemented with 0.50% granular feed additive according to the present invention and mixture B with 0.32% Lys×HCl, which corresponded in each case to identical lysine base concentrations. The granular feed additive according to the invention contained 50.7% by weight of lysine in the form of lysine sulphate and 10% by weight of biomass.
The process parameters, such as, for example, residence time, temperature or water content, were set at values which are typically used in practice. During the experiments, samples of the feed blend were taken after the respective individual process steps and subjected to extensive amino acid analysis. The hydrothermal stabilities of the test additives upon processing in the processes in question can be assessed relative to one another via the recovery rates.
The feed blends corresponded to representative state-of-the-art formulas. […]
In the amino acid determination, the supplemented amino acid lysine was determined. […] Thereafter, the amino acids were subjected to photometric quantitation at 570 nm. […]

rainbow trout = conditions: aquafeed with different lysine concentrations, FIG. 8; cited from earlier work
[2] = Hydrothermal stability, Experiment 9.1: extruded aquafeed (lysine recovery); format: physicochemical
Text: as §1
The process parameters, such as, for example, residence time, temperature or water content, were set at values which are typically used in practice. […] The hydrothermal stabilities of the test additives upon processing in the processes in question can be assessed relative to one another via the recovery rates. […]
The hydrothermal stability of the granules according to the present invention was compared with the hydrothermal stability of Lys×HCl. The hydrothermal stability of the additives for extruded shrimp/prawn feed was examined and assessed during the entire respective process. […]
In the amino acid determination, the supplemented amino acid lysine was determined. […]

SMILES: Cl.NCCCC[C@H](N)C(=O)O [lysine HCl, L-lysine monohydrochloride]
- Lysine loss upon pelleting [1]: approximately 3.3%
- Effect of the nature of the lysine source on the weight increase of trout (rainbow trout): no effect on the weight increase
- Lysine lost during the processing to give shrimp/prawn feed ([2]; extrusion process): 8.6%
- Stability of the lysine in the shrimp/prawn feed production process (comparison) ([2]; extrusion, lysine sulphate granules versus lysine HCl): markedly more unstable
